In the NIST ThermoML archive (doi:10.1021/je8001255):

Assay: an = ratio of the nth substance listed, in mol/kg
Conditions: 100 kPa, Liquid; for electrical conductivity: Alternating current cell with electrodes

O=S(=O)([O-])[O-].[Co+2] [cobalt(II) sulfate] + O
Conditions	electrical conductivity, 278.15 K [S/m]	electrical conductivity, 283.15 K [S/m]	electrical conductivity, 288.15 K [S/m]	electrical conductivity, 293.15 K [S/m]	electrical conductivity, 298.15 K [S/m]	electrical conductivity, 303.15 K [S/m]	electrical conductivity, 308.15 K [S/m]	mass density, 298.15 K [kg/m3]
a1 = 0.00551	0.0574	0.066	0.0749	0.084	0.0933	0.103	0.112	997.94
a1 = 0.02535	0.2	0.229	0.26	0.291	0.322	0.354	0.385	1001.16
a1 = 0.05135	0.338	0.388	0.439	0.491	0.544	0.597	0.649	1005.36
a1 = 0.1014	0.58	0.665	0.752	0.841	0.93	1.02	1.11	1013.44
a1 = 0.2522	1.19	1.36	1.54	1.72	1.9	2.09	2.27	1038.18
a1 = 0.4949	1.97	2.25	2.55	2.86	3.16	3.47	3.78	1079.59
a1 = 0.7706	2.63	3.03	3.43	3.85	4.27	4.7	5.12	1129.58
a1 = 0.9827	2.99	3.44	3.91	4.39	4.89	5.39	5.89	1170.36
a1 = 1.151	3.17	3.66	4.17	4.7	5.23	5.78	6.33	1204.34
a1 = 1.257	3.23	3.73	4.26	4.81	5.37	5.94	6.52	1227.86
a1 = 1.519	3.19	3.71	4.26	4.84	5.43	6.04	6.66	1286.2
a1 = 1.719	3.03	3.59	4.17	4.76	5.37	6	6.65	1331.86

O=S(=O)([O-])[O-].[Cu+2] [copper sulfate] + O
Conditions	electrical conductivity, 278.15 K [S/m]	electrical conductivity, 283.15 K [S/m]	electrical conductivity, 288.15 K [S/m]	electrical conductivity, 293.15 K [S/m]	electrical conductivity, 298.15 K [S/m]	electrical conductivity, 303.15 K [S/m]	electrical conductivity, 308.15 K [S/m]	mass density, 298.15 K [kg/m3]
a1 = 0.00666	0.0666	0.0763	0.0863	0.0965	0.107	0.117	0.128	998.16
a1 = 0.02534	0.196	0.224	0.253	0.282	0.311	0.34	0.369	1001.26
a1 = 0.04942	0.319	0.365	0.412	0.459	0.506	0.553	0.598	1005.23
a1 = 0.09691	0.543	0.621	0.7	0.78	0.86	0.938	1.01	1013.09
a1 = 0.2535	1.17	1.34	1.51	1.68	1.85	2.02	2.19	1039.39
a1 = 0.3778	1.61	1.84	2.07	2.31	2.54	2.78	3	1060.88
a1 = 0.4881	1.95	2.23	2.52	2.81	3.1	3.39	3.68	1080.51
a1 = 0.6806	2.49	2.85	3.23	3.6	3.99	4.37	4.74	1115.98
a1 = 0.7935	2.75	3.15	3.57	4	4.43	4.87	5.29	1137.68
a1 = 0.9197	3	3.45	3.92	4.4	4.88	5.37	5.85	1162.72
a1 = 1.037	3.22	3.7	4.21	4.73	5.25	5.79	6.32	1186.79
a1 = 1.138	3.34	3.85	4.39	4.94	5.51	6.08	6.66	1208.14
a1 = 1.198	3.4	3.93	4.48	5.06	5.64	6.24	6.83	1220.58

O=S(=O)([O-])[O-].[Zn+2] [zinc sulfate] + O
Conditions	electrical conductivity, 278.15 K [S/m]	electrical conductivity, 283.15 K [S/m]	electrical conductivity, 288.15 K [S/m]	electrical conductivity, 293.15 K [S/m]	electrical conductivity, 298.15 K [S/m]	electrical conductivity, 303.15 K [S/m]	electrical conductivity, 308.15 K [S/m]	mass density, 298.15 K [kg/m3]
a1 = 0.00628	0.0627	0.072	0.0816	0.0916	0.102	0.112	0.122	998.09
a1 = 0.02608	0.204	0.233	0.264	0.295	0.327	0.359	0.391	1001.41
a1 = 0.05064	0.333	0.382	0.432	0.483	0.534	0.585	0.638	1005.55
a1 = 0.1023	0.581	0.666	0.753	0.841	0.931	1.02	1.11	1014.14
a1 = 0.2077	1.02	1.17	1.32	1.48	1.63	1.79	1.94	1031.96
a1 = 0.4748	1.92	2.2	2.49	2.79	3.09	3.38	3.68	1078.96
a1 = 0.7453	2.62	3	3.4	3.81	4.23	4.65	5.07	1129.79
a1 = 0.9563	3.01	3.46	3.85	4.41	4.91	5.41	5.91	1171.99
a1 = 1.191	3.27	3.78	4.31	4.86	5.42	6	6.57	1221.75
a1 = 1.298	3.34	3.87	4.42	5	5.59	6.19	6.8	1250.72
a1 = 1.489	3.32	3.87	4.45	5.05	5.68	6.32	6.97	1293.66
a1 = 1.623	3.22	3.77	4.35	4.96	5.6	6.25	6.92	1326.7
a1 = 1.826	2.96	3.49	4.07	4.68	5.32	5.99	6.67	1377.89
